This data set deals with microbiota present in the faecal samples. In words: Oligosaccharide distribution (HPAEC-PAD peak areas) during faecal fermentation. An excerpt:
HPAEC-PAD (high performance anion exchange chromatography) equipped with a PA-1 column was used for separation of mono- and oligosaccharides of the different samples. Efforts were made to achieve a separation quality described in van Leeuwen et al., Carbohydrate Research 2016, 425, 48-58. […] The samples as used for GPC were 100-fold diluted with DMSO before injection.
The distribution of oligosaccharides in the mixtures was also monitored over this time period using the method described above in relation to Table 2.

On to `O=C[C@H](O)[C@@H](O)[C@@H](O)[C@H](O)CO` [Galactose], for which the Peak areas reads like this: (in Comp. Ex. 1, 0 h) 0.5; (in Comp. Ex. 1, 6 h, Donor A) 2.4; (in Comp. Ex. 1, 6 h, Donor B) 45.1; (in Comp. Ex. 1, 6 h, Donor C) 0.7; (in Comp. Ex. 1, 24 h, Donor A) 0.0; (in Comp. Ex. 1, 24 h, Donor B) 0.1. Further, the Peak areas is 0.0 (in Comp. Ex. 1, 24 h, Donor C); 0.0 (in Comp. Ex. 1, 48 h, Donor A); 0.0 (in Comp. Ex. 1, 48 h, Donor B); 0.0 (in Comp. Ex. 1, 48 h, Donor C); 1.3 (in Example 2, 0 h); 2.1 (in Example 2, 6 h, Donor A). Also, the Peak areas by setting is: (in Example 2, 6 h, Donor B) 47.3; (in Example 2, 6 h, Donor C) 0.8; (in Example 2, 24 h, Donor A) 0.0; (in Example 2, 24 h, Donor B) 0.1; (in Example 2, 24 h, Donor C) 0.0; (in Example 2, 48 h, Donor A) 0.0. The compound further had a Peak areas (in Example 2, 48 h, Donor B) of 0.0 and a Peak areas (in Example 2, 48 h, Donor C) of 0.0.

Consider `O=C[C@H](O)[C@@H](O)[C@H](O)[C@H](O)CO` [Glucose], for which the Peak areas (in Comp. Ex. 1, 0 h) was found to be 19.5; the Peak areas (in Comp. Ex. 1, 6 h, Donor A) is reported as 2.9; the Peak areas (in Comp. Ex. 1, 6 h, Donor B) is given as 34.1; the Peak areas (in Comp. Ex. 1, 6 h, Donor C) is reported as 0.2; the Peak areas (in Comp. Ex. 1, 24 h, Donor A) is on record as 0.0; the Peak areas (in Comp. Ex. 1, 24 h, Donor B) came to 0.1. The Peak areas stood at 0.0 (in Comp. Ex. 1, 24 h, Donor C); 0.0 (in Comp. Ex. 1, 48 h, Donor A); 0.0 (in Comp. Ex. 1, 48 h, Donor B); 0.0 (in Comp. Ex. 1, 48 h, Donor C); 17.5 (in Example 2, 0 h); 2.6 (in Example 2, 6 h, Donor A). The Peak areas was 26.9 (in Example 2, 6 h, Donor B); 0.3 (in Example 2, 6 h, Donor C); 0.0 (in Example 2, 24 h, Donor A); 0.0 (in Example 2, 24 h, Donor B); 0.0 (in Example 2, 24 h, Donor C); 0.0 (in Example 2, 48 h, Donor A). The Peak areas (in Example 2, 48 h, Donor B) came out at 0.0 and the Peak areas (in Example 2, 48 h, Donor C) stood at 0.0.

Consider `OC[C@H]1O[C@@H](O[C@H]2[C@H](O)[C@@H](O)C(O)O[C@@H]2CO)[C@H](O)[C@@H](O)[C@H]1O` (stereo partly drawn) [Lactose], for which the Peak areas was 48.4 (in Comp. Ex. 1, 0 h); 0.7 (in Comp. Ex. 1, 6 h, Donor A); 1.9 (in Comp. Ex. 1, 6 h, Donor B); 0.4 (in Comp. Ex. 1, 6 h, Donor C); 0.4 (in Comp. Ex. 1, 24 h, Donor A); 0.5 (in Comp. Ex. 1, 24 h, Donor B). In addition, the Peak areas came out at 0.4 (in Comp. Ex. 1, 24 h, Donor C); 0.3 (in Comp. Ex. 1, 48 h, Donor A); 0.5 (in Comp. Ex. 1, 48 h, Donor B); 0.3 (in Comp. Ex. 1, 48 h, Donor C); 30.9 (in Example 2, 0 h); 0.3 (in Example 2, 6 h, Donor A). The Peak areas by setting is: (in Example 2, 6 h, Donor B) 5.3; (in Example 2, 6 h, Donor C) 0.6; (in Example 2, 24 h, Donor A) 0.3; (in Example 2, 24 h, Donor B) 0.4; (in Example 2, 24 h, Donor C) 0.4; (in Example 2, 48 h, Donor A) 0.3. This compound also displayed a Peak areas (in Example 2, 48 h, Donor B) of 0.5 and a Peak areas (in Example 2, 48 h, Donor C) of 0.3.

For the origin of these results see patent publication US20260014179A1, “OLIGOSACCHARIDE COMPOSITION FOR USE IN THE REDUCTION OF THE LEVEL OF BRANCHED SHORT CHAIN FATTY ACIDS” (priority 2022, published 2026).
